Assay results as given in article PMC7592913, “PE homeostasis rebalanced through mitochondria-ER lipid exchange prevents retinal degeneration in Drosophila” (PLoS Genetics, 2020).

Target: T1, PECT (Drosophila melanogaster, UniProt Q9VK25)
T1 construct: pect cDNA in pMAL, N-terminal MBP fusion (tag kept), E. coli BL21 (DE3), amylose column
Test: LC-MS (SRM) detection of CDP-ethanolamine product
Type: biochemical
Conditions: 1 mM phosphoethanolamine, 2 mM CTP, 10 mM MgCl2, 1 mM DTT, 1 uM MBP-PECT, pH 7.7, 37 °C, 15 min

T1 sequence (Q9VK25 1-393): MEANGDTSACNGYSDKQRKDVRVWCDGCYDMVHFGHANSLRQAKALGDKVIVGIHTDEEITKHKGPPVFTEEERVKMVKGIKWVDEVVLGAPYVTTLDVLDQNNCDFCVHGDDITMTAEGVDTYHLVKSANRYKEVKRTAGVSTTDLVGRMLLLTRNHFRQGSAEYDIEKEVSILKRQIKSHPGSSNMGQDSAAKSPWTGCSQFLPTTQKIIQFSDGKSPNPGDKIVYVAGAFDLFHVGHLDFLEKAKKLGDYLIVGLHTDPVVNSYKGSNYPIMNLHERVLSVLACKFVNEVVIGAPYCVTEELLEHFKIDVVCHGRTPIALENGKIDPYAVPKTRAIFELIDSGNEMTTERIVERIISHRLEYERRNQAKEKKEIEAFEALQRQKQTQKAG

Row | Compound | LC-MS (SRM) detection of CDP-ethanolamine product
1 | Nc1ccn([C@@H]2O[C@H](COP(=O)(O)OP(=O)(O)OP(=O)(O)O)[C@@H](O)[C@H]2O)c(=O)n1 [CTP] | CDP-ethanolamine was detected by the mass spectrum after incubating phosphoethanolamine and CTP with PECT
2 | NCCOP(=O)(O)O [phosphoethanolamine] | CDP-ethanolamine was detected by the mass spectrum after incubating phosphoethanolamine and CTP with PECT
